Assay results: US6417194B1, “Quinolines and quinazolines useful in therapy” (Pfizer, Inc., priority 1997, dated 2002)

Tested on: human prostate
Assay: Contractile responses of human prostate
Conditions: antagonist affinity estimate against (−)-noradrenaline contractions of prostatic tissue strips; single antagonist concentration, incubated 2 hours
Protocol: Contractile Responses of Human Prostate
Prostatic tissue was cut into longitudinal strips (approximately 3×2×10 mm) and suspended in organ baths under a resting tension of 1 g in Krebs Ringer bicarbonate of the following composition (mM): NaCl (119), KCl (4.7), CaCl2 (2.5), KH2PO4 (1.2), MgSO4 (1.2), NaHCO3 (25), glucose (11), and gassed with 95% O2/5% CO2.
The solution also contained […]. Tissues were exposed to a sensitising dose of (−)-noradrenaline ([…]) and washed over a 45 minute period. Isometric contractions were obtained in response to cumulative additions of (−)-noradrenaline to obtain control curves in all tissues. A further curve was then generated in the presence or absence of antagonist (incubated for 2 hours). Antagonist affinity estimates (pA2) were determined using a single concentration of competing antagonist, […] where the dose ratio (DR), relative to corresponding controls, was produced by a single concentration of antagonist [A], assuming competitive antagonism and Schild regression close to unity.

`COc1cc2nc(N3CCCN(C(=O)N4CCOCC4)CC3)nc(N)c2cc1OCC1CCC1` [Example 3, 4-Amino-6-cyclobutylmethyloxy-7-methoxy-2-[4-(4-morpholinecarbonyl)-1,4-diazepan-1-yl]quinazoline] gave a pA2 value of 9.2.
